Data reported in patent publication US8703114B2, “Conjugate of a polymer, an anti-angiogenesis agent and a targeting moiety, and uses thereof in the treatment of bone related angiogenesis conditions” (priority 2008, dated 2014).
Read-outs that look alike come from different tables or passages of the source.

What was measured:
HUVEC [1] = test: HUVEC cell proliferation assay; conditions: for IC30 of HUVEC proliferation / IC70 of HUVEC proliferation: single treatment
Method: HUVEC were plated at 10,000 cells/well onto 24-well culture plates in EBM-2 supplemented with 5% FBS and incubated for 24 hours (37° C.; 5% CO2). Medium was replaced with 2.5% endothelial cell basal medium-2 (EBM-2) supplemented with 1% Endothelial cell growth supplement (ECGS). Human osteosarcoma Saos-2 or MG-63-Ras cells were plated at 2500 cells/well in DMEM supplemented with 5 FBS and incubated for 24 hours (37° C.; 5% CO2). The medium was then replaced with DMEM supplemented with 10% FBS. Cells were exposed to ALN, TNP-470, and HPMA copolymer-ALN-TNP-470 conjugate or with equivalent concentrations of combinations of free ALN and TNP-470 at serial dilutions. HUVEC were also incubated with or without 1 μM of cathepsin-K inhibitor III. Control cells were grown in the presence or absence of growth factors. HUVEC or Saos-2 viable cells were counted by a Z1 Coulter® Particle Counter (Beckman Coulter™) or by XTT reagent respectively after 72 hours of incubation.
IC50 represents the concentration of a drug that is required for 50% inhibition in vitro. The IC30, 50, 70 values of treatment with ALN, TNP-470 and their respective combinations from HUVEC proliferation assay were collected. IC30, 50, 70 values of TNP-470 and ALN were marked on X, Y axis respectively and a line which represents additive effect was drawn between each inhibitory concentration (IC). The combination index (CI) of each treatment was calculated according to the classic isobologram equation CI=[(D)1/(Dx)1]+[(D)2/(Dx)2] as previously described [Chou T. C. Pharmocol Rev 2006; 58:621-681]. Area on the right side of each IC additive line represents antagonist effect while the left side represents synergic effect.

HUVEC [2] = test: HUVEC migration assay towards VEGF; type: cell-based, human
Method: Cell migration assays were performed using modified 8 μm Boyden chambers coated with 10 μg/ml fibronectin. […] Following incubation, cells were allowed to migrate to the underside of the chamber for 4 hours in the presence or absence of Vascular endothelial growth factor (VEGF) (20 ng/ml) in the lower chamber. Cells were then fixed with ice-cold […] and stained using Hema 3 Stain System. The stained migrated cells were imaged using Nikon TE2000E inverted microscope integrated with Nikon DS5 cooled CCD camera by 10× objective, brightfield illumination. Migrated cells from the captured images per membrane were counted using NIH image software. Migration was normalized to percent migration, with 100% representing VEGF dependent migration of cells which were not incubated with free or HPMA-conjugated ALN and TNP-470.

[3] = test system: MG-63-Ras human osteosarcoma tumors; test: Immunohistochemistry of tumors (H & E, CD34 microvessel density); type: in vivo, mice
Method: Immunohistochemistry of tumor nodules was performed using 5 μm thick formalin-fixed, paraffin-embedded tissue sections. Paraffin sections were de-paraffinized, rehydrated, and stained by hematoxylin and eosin (H & E). For CD34 staining (an endothelial cell marker), slides were deparaffinized and pre-treated with 10 mM citrate, pH 6.0 for 50 min in a steam pressure cooker (Decloaking Chamber, BioCare Medical, Walnut Creek, Calif.). All further steps were performed at room temperature in a hydrated chamber. Slides were covered with Peroxidase Block (Merck, Germany) for 5 minutes to quench endogenous peroxidase activity, followed by incubation with 10% of rabbit serum in 50 mM Tris-HCl, pH 7.4, for 30 min to block non-specific binding sites. Primary rat anti-murine CD34 antibody (MEC 14.7 1:50 dilution; Abcam, Cambridge, Mass.) was applied in 1% rabbit serum in Tris-HCl, pH 7.4 at room temperature for 1 hour. Slides were washed in 50 mM TrisHCl, pH 7.4 and rabbit anti-rat antibody (1:750 dilution; Vector Laboratories, CA, USA) was applied for 30 minutes, followed by anti-rabbit horseradish peroxidase-conjugated antibody (ABC detection kit, Vector Laboratories, CA, USA). Following further washing, immunoperoxidase staining was developed using a ImmPACT™ DAB diluent kit (Vector Laboratories, CA, USA) per the manufacturer instructions and counterstained with methyl green. Microvessel density (MVD) was calculated as previously described [Weidner et al. 1991, N Engl J Med 324:1-8].

[4] = test system: MG-63-Ras human osteosarcoma cells; test: MG-63-Ras cell proliferation assay; type: cell-based
Method: (§1) Human osteosarcoma Saos-2 or MG-63-Ras cells were plated at 2500 cells/well in DMEM supplemented with 5 FBS and incubated for 24 hours (37° C.; 5% CO2). The medium was then replaced with DMEM supplemented with 10% FBS. Cells were exposed to ALN, TNP-470, and HPMA copolymer-ALN-TNP-470 conjugate or with equivalent concentrations of combinations of free ALN and TNP-470 at serial dilutions. […] Control cells were grown in the presence or absence of growth factors. HUVEC or Saos-2 viable cells were counted by a Z1 Coulter® Particle Counter (Beckman Coulter™) or by XTT reagent respectively after 72 hours of incubation.

HUVEC [5] = test: Capillary-like tube formation assay; type: cell-based, human
Method: The surface of 24-well plates was coated with Matrigel® basement membrane (50 μl/well; 10 mg/ml) on ice and was allowed to polymerize at 37° C. for 30 minutes. […] After 8 hours of incubation (37° C.; 5% CO2), wells were imaged using Nikon TE2000E inverted microscope integrated with Nikon DS5 cooled CCD camera by 4× objective, brightfield illumination. […]

[6] = test system: Saos-2 human osteosarcoma cells; test: Saos-2 cell proliferation assay; type: cell-based
Method: as §1

[7] = test system: VEGF-induced extravasation of Evans blue dye; test: Miles vascular permeability assay; type: in vivo, Balb/c mice; conditions: 30 mg/kg TNP-470 equivalents s.c., assay three days later
Method: Balb/c male mice were injected subcutaneously (s.c.) with TNP-470, HPMA copolymer-ALN-TNP-470 conjugate (30 mg/kg TNP-470 equivalents) or saline (n=5 mice/group). Three days later, a modified Miles assay was performed as previously described [Claffey et al. 1996, Cancer Res 56: 172-181; Miles & Miles 1952, J Physiol 118:228-257]. Briefly, Evans blue dye (100 μl of a 1% solution in 0.9% NaCl) was injected into the retro-orbital plexus of the mice. Ten minutes later, 50 μl of human VEGF165 (1 ng/μl) or PBS were injected intradermally into the pre-shaved back skin. Twenty minutes later, the animals were killed, and an area of skin that included the entire injection site was removed. Evans blue dye was extracted from the skin by incubation with formamide for 5 days at room temperature, and the absorbance of the extracted dye was measured at 620 nm. Data is expressed as mean±standard error of the mean (s.e.m.).

[8] = test system: mCherry-labeled MG-63-Ras human osteosarcoma; test: Antitumor activity on MG-63-Ras human osteosarcoma in mice; type: in vivo, SCID mice; conditions: day 19, 30 mg/kg q.o.d. 3 times s.c.
Method: SCID male were inoculated s.c. with 5×10^5 mCherry-labeled MG-63-Ras human osteosarcoma. Mice bearing 70 mm^3 tumors were injected s.c. with combination of free ALN and TNP-470 (1:1, 30 mg/kg), FITC-labeled HPMA copolymer-ALN-TNP-470 conjugate (30 mg/kg q.o.d.×3 times TNP-470-equivalent dose) or saline (n=5 mice/group). Therapy was initiated at a relatively early state (70 mm^3) in order to imitate a metastatic scenario as well as an early primary osteosarcoma. Tumor progression was monitored by caliper measurement (width×length^2×0.52) and by CRI™ Maestro non-invasive intravital imaging system. At termination, tumors were dissected, weighed and analyzed. Data is expressed as mean±standard error of the mean (s.e.m.).
CRI Maestro™ non-invasive fluorescence imaging system was used to follow tumor progression of mice bearing mCherry-labeled MG-63-Ras human osteosarcoma tumors and for biodistribution studies of FITC-labeled HPMA copolymer-ALN-TNP-470 conjugate. Mice were maintained on a non-fluorescent diet (Harlan) for the whole period of the experiment. Mice were anesthetized using ketamine (100 mg/kg) and xylazine (12 mg/kg), treated with a depilatory cream (Veet®) and placed inside the imaging system. Alternatively, selected organs from mice were dissected and placed inside the imaging system. […]

[9] = Hydroxyapatite binding assay; conditions: PBS pH 7.4
Method: In order to assess the ability of HPMA copolymer-ALN-TNP-470 conjugate to bind to bone mineral, its binding potency to hydroxyapatite (HA) was evaluated. HPMA copolymer-ALN-TNP-470 conjugate was dissolved in phosphate buffered saline (PBS), pH 7.4 (1 mg/ml). The conjugate solution (500 μl) was incubated with hydroxyapatite powder (15 mg), in 500 μl PBS, pH 7.4. HPMA copolymer-Gly-Phe-Leu-Gly was used as control. Incubated samples were centrifuged at 6000 RPM for 3 minutes and a sample from the upper layer (100 μl) was collected at selected time points. FPLC analysis using HighTrap desalting column (Amersham®) was used for detection of unbound conjugate in the samples (FPLC conditions: AKTA™ Purifier®, mobile phase 100% DDW, 2 ml/minute, 215 nm). Hydroxyapatite binding kinetic analysis of the conjugate was performed using the Unicorn® AKTA™ software. Areas under the curve (AUC) were calculated from chromatographs at each time point. AUC of each hydroxyapatite incubated conjugate chromatogram was normalized to percent AUC of conjugate sample in the absence of hydroxyapatite used as control.

[10] = Homo sapiens, HUVEC, read-out: IC50 of HUVEC proliferation
[11] = equivalent concentration 0.1 nM

**Q.** With `CO[C@@H]1[C@H](OC(=O)NC(=O)CCl)CC[C@]2(CO2)[C@H]1[C@@]1(C)O[C@@H]1CC=C(C)C` [TNP-470] as the compound, how does the “Inhibition of HUVEC proliferation, free vs conjugated TNP-470” value (HUVEC [1]) read?
**A.** inhibited similarly

**Q.** And the IC50 (HUVEC [1]; [10])?
**A.** 0.0001 µM

**Q.** And the “IC30 of HUVEC proliferation” value (HUVEC [1])?
**A.** 2.5e-07 µM

**Q.** And the “IC70 of HUVEC proliferation” value (HUVEC [1])?
**A.** 1 µM

**Q.** And the “Inhibition of chemotactic migration response to VEGF” value (“Inhibition … to VEGF” for short) (HUVEC [2]; equivalent concentrations of 0.1, 1 and 10 nM)?
**A.** dramatically inhibited

**Q.** Which “Microvessel density (MVD)” value ([3]; CD34 staining) does the source give for “HPMA-Gly-Gly-Pro-Nle-ALN-TNP-470 [HPMA copolymer-ALN-TNP-470 conjugate]” here?
**A.** 32±9 microvessels/mm^2

**Q.** What about the “Reduction in microvessel density (MVD) vs control” value ([3]; CD34 staining) of the same compound?
**A.** 74%

**Q.** And the “Tumor histology (H & E)” value ([3]; mouse, in vivo)?
**A.** almost regressed

**Q.** What about the “Cytotoxic effect on HUVEC at doses higher than” value (HUVEC [1]; ALN and TNP-470 equivalent concentrations) of the same compound?
**A.** > 10 nM

**Q.** And the “Concentrations inhibiting HUVEC proliferation in the presence of cathepsin K inhibitor III” value (HUVEC [1]; ALN-equivalent concentrations, 72 hours)?
**A.** higher than 4 μM

**Q.** What about the “Shift of concentration inhibiting HUVEC proliferation in presence vs absence of cathepsin K inhibitor III” value (HUVEC [1]; higher concentration in presence of inhibitor) of the same compound?
**A.** 4 logs

**Q.** And the IC50 (HUVEC [1]; read-out: IC50 of ECGS-induced HUVEC proliferation, ALN and TNP-470 equivalent concentrations, 72 hours)?
**A.** 0.001 µM

**Q.** What about the IC50 (HUVEC [1]; read-out: IC50 of HUVEC proliferation in the presence of cathepsin K inhibitor III, 1 μM cathepsin K inhibitor III) of the same compound?
**A.** 4.2 µM

**Q.** And the IC50 [4]?
**A.** 10 µM

**Q.** And the “Inhibition of capillary-like tube length vs untreated control” value (“Inhibition … vs untreated control” below) (HUVEC [5]; equivalent concentration 0.01 nM)?
**A.** 29%

**Q.** What about the “Inhibition … vs untreated control” value (HUVEC [5]; [11]) of the same compound?
**A.** 54%

**Q.** What about the “Inhibition … vs untreated control” value (HUVEC [5]; equivalent concentration 1 nM) of the same compound?
**A.** 64%

**Q.** What about the IC50 [6] of the same compound?
**A.** 30 µM

**Q.** What about the “Inhibition … to VEGF” value (HUVEC [2]; [11]) of the same compound?
**A.** 18%

**Q.** What about the “Inhibition … to VEGF” value (HUVEC [2]; equivalent concentration 1 nM) of the same compound?
**A.** 35%

**Q.** And the “Inhibition … to VEGF” value (HUVEC [2]; equivalent concentration 10 nM)?
**A.** 61%

**Q.** What about the “Inhibition of VEGF-induced extravasation of Evans blue dye vs vehicle” value [7] of the same compound?
**A.** 92%

**Q.** What about the Tumor growth inhibition [8] of the same compound?
**A.** 96%

**Q.** What about the “Conjugate bound to hydroxyapatite” value ([9]; 2 minutes of incubation) of the same compound?
**A.** 50%

**Q.** What about the “Conjugate bound to hydroxyapatite” value ([9]; plateau after 175 minutes of incubation) of the same compound?
**A.** 92%

**Q.** Which “Dose dependence of inhibition of ECGS-induced HUVEC proliferation” value (HUVEC [1]) does the source give for `NCCCC(O)(P(=O)(O)O)P(=O)(O)O` [ALN, (4-amino-1-hydroxybutylidene)bisphosphonic acid] here?
**A.** inhibited at a dose dependent manner

**Q.** What about the IC50 (HUVEC [1]; [10]) of the same compound?
**A.** 50 µM

**Q.** What about the “IC30 of HUVEC proliferation” value (HUVEC [1]) of the same compound?
**A.** 10 µM

**Q.** And the “IC70 of HUVEC proliferation” value (HUVEC [1])?
**A.** 90 µM

**Q.** What about the “Dose dependence of inhibition of Saos-2 proliferation” value [6] of the same compound?
**A.** inhibited at a dose dependent manner
